Assay results reported in patent publication US8618085B2, “Therapeutic formulations of desoxyepothilones” (Koasn Biosciences Incorporated, priority 2000, dated 2013).

Assay: Dilution stability of epothilone D formulations, visual appearance
Assay type: physicochemical
Set-up: key: remained clear; ppt: precipitation; xtal: crystallization
Details: for Visual Appearance RODI Dilution 0 h / Visual Appearance RODI Dilution 12 h / Visual Appearance RODI Dilution 24 h / Visual Appearance RODI Dilution 36 h / Visual Appearance RODI Dilution 48 h: 1:10 into RODI water; for Visual Appearance Initial: undiluted
Procedure: The dilution stability of epothilone D formulations at 8-20 mg/mL in various formulations was examined. A stock solution of epothilone D (100 mg/mL) was prepared in ethanol. Epothilone D formulations were prepared as listed in the following tables by addition of the requisite amount of ethanol, PEG400, 10% Tween® 80, and either propylene glycol or glycerol to the appropriate volume of the epothilone D stock solution. The solubility of epothilone D in each vial was observed visually following gentle swirling. Each formulation was syringe filtered through a 0.2 micron PVDF filter. Each formulation was subsequently diluted 1:8, 1:10, or 1:12 in reverse osmosis deionized water (RODI) or 0.9% saline. Visual observations were taken upon preparation, upon dilution, and both 1 and 24 hours after incubation at ambient temperature.
The dilution stability up to 48 hours post-dilution was examined for the above formulations containg 8-11 mg/mL of epothilone D after 1:10 dilution into either RODI water or 0.45% saline, as summarized in Tables 12 and 13 below.

[1] = 8 mg/mL epo D in 10% Tween 80, 50% ethanol, 30% PEG400, 10% propylene glycol
[2] = 8 mg/mL epo D in 10% Tween 80, 50% ethanol, 30% PEG400, 10% propylene glycol, 0.9% saline
[3] = 8 mg/mL epo D in 10% Tween 80, 50% ethanol, 30% PEG400, 10% propylene glycol, 1:10 into 0.45% saline
[4] = 8 mg/mL epo D in 10% Tween 80, 60% ethanol, 20% PEG400, 10% glycerol
[5] = 8 mg/mL epo D in 10% Tween 80, 60% ethanol, 20% PEG400, 10% glycerol, 0.9% saline
[6] = 8 mg/mL epo D in 10% Tween 80, 60% ethanol, 20% PEG400, 10% glycerol, 1:10 into 0.45% saline
[7] = 9 mg/mL epo D in 10% Tween 80, 50% ethanol, 30% PEG400, 10% propylene glycol, 1:10 into 0.45% saline
[8] = 9 mg/mL epo D in 10% Tween 80, 50% ethanol, 30% PEG400, 10% propylene glycol
[9] = 9 mg/mL epo D in 10% Tween 80, 60% ethanol, 20% PEG400, 10% glycerol, 1:10 into 0.45% saline
[10] = 9 mg/mL epo D in 10% Tween 80, 60% ethanol, 20% PEG400, 10% glycerol
[11] = 10 mg/mL epo D in 10% Tween 80, 50% ethanol, 30% PEG400, 10% propylene glycol
[12] = 10 mg/mL epo D in 10% Tween 80, 50% ethanol, 30% PEG400, 10% propylene glycol, 0.9% saline
[13] = 10 mg/mL epo D in 10% Tween 80, 50% ethanol, 30% PEG400, 10% propylene glycol, 1:10 into 0.45% saline
[14] = 10 mg/mL epo D in 10% Tween 80, 60% ethanol, 20% PEG400, 10% glycerol
[15] = 10 mg/mL epo D in 10% Tween 80, 60% ethanol, 20% PEG400, 10% glycerol, 0.9% saline
[16] = 10 mg/mL epo D in 10% Tween 80, 60% ethanol, 20% PEG400, 10% glycerol, 1:10 into 0.45% saline
[17] = 11 mg/mL epo D in 10% Tween 80, 50% ethanol, 30% PEG400, 10% propylene glycol, 1:10 into 0.45% saline
[18] = 11 mg/mL epo D in 10% Tween 80, 50% ethanol, 30% PEG400, 10% propylene glycol
[19] = 11 mg/mL epo D in 10% Tween 80, 60% ethanol, 20% PEG400, 10% glycerol, 1:10 into 0.45% saline
[20] = 11 mg/mL epo D in 10% Tween 80, 60% ethanol, 20% PEG400, 10% glycerol
[21] = 12 mg/mL epo D in 10% Tween 80, 50% ethanol, 30% PEG400, 10% propylene glycol
[22] = 12 mg/mL epo D in 10% Tween 80, 50% ethanol, 30% PEG400, 10% propylene glycol, 0.9% saline
[23] = 12 mg/mL epo D in 10% Tween 80, 60% ethanol, 20% PEG400, 10% glycerol
[24] = 12 mg/mL epo D in 10% Tween 80, 60% ethanol, 20% PEG400, 10% glycerol, 0.9% saline
[25] = 16 mg/mL epo D in 10% Tween 80, 50% ethanol, 30% PEG400, 10% propylene glycol
[26] = 16 mg/mL epo D in 10% Tween 80, 50% ethanol, 30% PEG400, 10% propylene glycol, 0.9% saline
[27] = 16 mg/mL epo D in 10% Tween 80, 60% ethanol, 20% PEG400, 10% glycerol
[28] = 16 mg/mL epo D in 10% Tween 80, 60% ethanol, 20% PEG400, 10% glycerol, 0.9% saline
[29] = 20 mg/mL epo D in 10% Tween 80, 50% ethanol, 30% PEG400, 10% propylene glycol
[30] = 20 mg/mL epo D in 10% Tween 80, 50% ethanol, 30% PEG400, 10% propylene glycol, 0.9% saline
[31] = 20 mg/mL epo D in 10% Tween 80, 60% ethanol, 20% PEG400, 10% glycerol
[32] = 20 mg/mL epo D in 10% Tween 80, 60% ethanol, 20% PEG400, 10% glycerol, 0.9% saline
[33] = Table 12: 10 mg/mL epo D in 10% Tween 80, 60% ethanol, 20% PEG400, 10% glycerol
[34] = Table 13: 10 mg/mL epo D in 10% Tween 80, 50% ethanol, 30% PEG400, 10% propylene glycol

## C/C1=C/CC(/C(C)=C/c2csc(C)n2)OC(=O)C[C@H](O)C(C)(C)C(=O)[C@H](C)[C@@H](O)[C@@H](C)CCC1 (some centres unmarked) [Epothilone D, Desoxyepothilone B]
[1]
  Visual Appearance RODI Dilution 1:08 0 h: clear
  Visual Appearance RODI Dilution 1:08 24 h: clear
  Visual Appearance RODI Dilution 1:10 0 h: clear
  Visual Appearance RODI Dilution 1:10 24 h: clear
  Visual Appearance RODI Dilution 1:12 0 h: clear
  Visual Appearance RODI Dilution 1:12 24 h: clear
  Visual Appearance RODI Dilution 0 h: clear
  Visual Appearance RODI Dilution 12 h: clear
  Visual Appearance RODI Dilution 24 h: clear
  Visual Appearance RODI Dilution 36 h: clear
  Visual Appearance RODI Dilution 48 h: clear
  Visual Appearance Initial: clear
[2]
  Visual Appearance Saline Dilution 1:08 1 h: xtal
  Visual Appearance Saline Dilution 1:10 1 h: xtal
  Visual Appearance Saline Dilution 1:12 1 h: clear
  Visual Appearance Saline Dilution 1:12 24 h: xtal
[3]
  Visual Appearance Saline Dilution 0 h: clear
  Visual Appearance Saline Dilution 12 h: xtal
[4]
  Visual Appearance RODI Dilution 1:08 0 h: clear
  Visual Appearance RODI Dilution 1:08 24 h: clear
  Visual Appearance RODI Dilution 1:10 0 h: clear
  Visual Appearance RODI Dilution 1:10 24 h: clear
  Visual Appearance RODI Dilution 1:12 0 h: clear
  Visual Appearance RODI Dilution 1:12 24 h: clear
  Visual Appearance RODI Dilution 0 h: clear
  Visual Appearance RODI Dilution 12 h: clear
  Visual Appearance RODI Dilution 24 h: clear
  Visual Appearance RODI Dilution 36 h: xtal
  Visual Appearance Initial: clear
[5]
  Visual Appearance Saline Dilution 1:08 1 h: clear
  Visual Appearance Saline Dilution 1:08 24 h: xtal
  Visual Appearance Saline Dilution 1:10 1 h: xtal
  Visual Appearance Saline Dilution 1:12 1 h: xtal
[6]
  Visual Appearance Saline Dilution 0 h: clear
  Visual Appearance Saline Dilution 12 h: xtal
[7]
  Visual Appearance Saline Dilution 0 h: clear
  Visual Appearance Saline Dilution 12 h: xtal
[8]
  Visual Appearance RODI Dilution 0 h: clear
  Visual Appearance RODI Dilution 12 h: clear
  Visual Appearance RODI Dilution 24 h: clear
  Visual Appearance RODI Dilution 36 h: clear
  Visual Appearance RODI Dilution 48 h: clear
[9]
  Visual Appearance Saline Dilution 0 h: clear
  Visual Appearance Saline Dilution 12 h: xtal
[10]
  Visual Appearance RODI Dilution 0 h: clear
  Visual Appearance RODI Dilution 12 h: clear
  Visual Appearance RODI Dilution 24 h: clear
  Visual Appearance RODI Dilution 36 h: xtal
[11]
  Visual Appearance RODI Dilution 1:08 0 h: clear
  Visual Appearance RODI Dilution 1:08 24 h: clear
  Visual Appearance RODI Dilution 1:10 0 h: clear
  Visual Appearance RODI Dilution 1:10 24 h: clear
  Visual Appearance RODI Dilution 1:12 0 h: clear
  Visual Appearance RODI Dilution 1:12 24 h: clear
  Visual Appearance Initial: clear
[12]
  Visual Appearance Saline Dilution 1:08 1 h: xtal
  Visual Appearance Saline Dilution 1:10 1 h: xtal
  Visual Appearance Saline Dilution 1:12 1 h: xtal
[13]
  Visual Appearance Saline Dilution 0 h: clear
  Visual Appearance Saline Dilution 12 h: clear
  Visual Appearance Saline Dilution 24 h: clear
  Visual Appearance Saline Dilution 36 h: xtal
[14]
  Visual Appearance RODI Dilution 1:08 0 h: clear
  Visual Appearance RODI Dilution 1:08 24 h: clear
  Visual Appearance RODI Dilution 1:10 0 h: clear
  Visual Appearance RODI Dilution 1:10 24 h: clear
  Visual Appearance RODI Dilution 1:12 0 h: clear
  Visual Appearance RODI Dilution 1:12 24 h: clear
  Visual Appearance Initial: clear
[15]
  Visual Appearance Saline Dilution 1:08 1 h: clear
  Visual Appearance Saline Dilution 1:08 24 h: xtal
  Visual Appearance Saline Dilution 1:10 1 h: xtal
  Visual Appearance Saline Dilution 1:12 1 h: xtal
[16]
  Visual Appearance Saline Dilution 0 h: clear
  Visual Appearance Saline Dilution 12 h: xtal
[17]
  Visual Appearance Saline Dilution 0 h: clear
  Visual Appearance Saline Dilution 12 h: xtal
[18]
  Visual Appearance RODI Dilution 0 h: clear
  Visual Appearance RODI Dilution 12 h: xtal
  Visual Appearance Initial: clear
[19]
  Visual Appearance Saline Dilution 0 h: clear
  Visual Appearance Saline Dilution 12 h: xtal
[20]
  Visual Appearance RODI Dilution 0 h: clear
  Visual Appearance RODI Dilution 12 h: xtal
  Visual Appearance Initial: clear
[21]
  Visual Appearance RODI Dilution 1:08 0 h: clear
  Visual Appearance RODI Dilution 1:08 24 h: clear
  Visual Appearance RODI Dilution 1:10 0 h: clear
  Visual Appearance RODI Dilution 1:10 24 h: clear
  Visual Appearance RODI Dilution 1:12 0 h: clear
  Visual Appearance RODI Dilution 1:12 24 h: xtal
  Visual Appearance Initial: clear
[22]
  Visual Appearance Saline Dilution 1:08 1 h: xtal
  Visual Appearance Saline Dilution 1:10 1 h: xtal
  Visual Appearance Saline Dilution 1:12 1 h: xtal
[23]
  Visual Appearance RODI Dilution 1:08 0 h: clear
  Visual Appearance RODI Dilution 1:08 24 h: clear
  Visual Appearance RODI Dilution 1:10 0 h: clear
  Visual Appearance RODI Dilution 1:10 24 h: clear
  Visual Appearance RODI Dilution 1:12 0 h: clear
  Visual Appearance RODI Dilution 1:12 24 h: xtal
  Visual Appearance Initial: clear
[24]
  Visual Appearance Saline Dilution 1:08 1 h: xtal
  Visual Appearance Saline Dilution 1:10 1 h: xtal
  Visual Appearance Saline Dilution 1:12 1 h: xtal
[25]
  Visual Appearance RODI Dilution 1:08 0 h: ppt
  Visual Appearance RODI Dilution 1:10 0 h: ppt
  Visual Appearance RODI Dilution 1:12 0 h: ppt
  Visual Appearance Initial: clear
[26]
  Visual Appearance Saline Dilution 1:08 1 h: ppt
  Visual Appearance Saline Dilution 1:10 1 h: ppt
  Visual Appearance Saline Dilution 1:12 1 h: ppt
[27]
  Visual Appearance RODI Dilution 1:08 0 h: ppt
  Visual Appearance RODI Dilution 1:10 0 h: ppt
  Visual Appearance RODI Dilution 1:12 0 h: ppt
  Visual Appearance Initial: clear
[28]
  Visual Appearance Saline Dilution 1:08 1 h: ppt
  Visual Appearance Saline Dilution 1:10 1 h: ppt
  Visual Appearance Saline Dilution 1:12 1 h: ppt
[29]
  Visual Appearance RODI Dilution 1:08 0 h: ppt
  Visual Appearance RODI Dilution 1:10 0 h: ppt
  Visual Appearance RODI Dilution 1:12 0 h: ppt
  Visual Appearance Initial: clear
[30]
  Visual Appearance Saline Dilution 1:08 1 h: ppt
  Visual Appearance Saline Dilution 1:10 1 h: ppt
  Visual Appearance Saline Dilution 1:12 1 h: ppt
[31]
  Visual Appearance RODI Dilution 1:08 0 h: ppt
  Visual Appearance RODI Dilution 1:10 0 h: ppt
  Visual Appearance RODI Dilution 1:12 0 h: ppt
  Visual Appearance Initial: clear
[32]
  Visual Appearance Saline Dilution 1:08 1 h: ppt
  Visual Appearance Saline Dilution 1:10 1 h: ppt
  Visual Appearance Saline Dilution 1:12 1 h: ppt
Table 12: 8 mg/mL epo D in 10% Tween 80, 60% ethanol, 20% PEG400, 10% glycerol
  Visual Appearance Initial: clear
Table 12: 9 mg/mL epo D in 10% Tween 80, 60% ethanol, 20% PEG400, 10% glycerol
  Visual Appearance Initial: clear
[33]
  Visual Appearance RODI Dilution 0 h: clear
  Visual Appearance RODI Dilution 12 h: clear
  Visual Appearance RODI Dilution 24 h: clear
  Visual Appearance RODI Dilution 36 h: clear
  Visual Appearance RODI Dilution 48 h: xtal
  Visual Appearance Initial: clear
Table 13: 8 mg/mL epo D in 10% Tween 80, 50% ethanol, 30% PEG400, 10% propylene glycol
  Visual Appearance Initial: clear
Table 13: 9 mg/mL epo D in 10% Tween 80, 50% ethanol, 30% PEG400, 10% propylene glycol
  Visual Appearance Initial: clear
[34]
  Visual Appearance RODI Dilution 0 h: clear
  Visual Appearance RODI Dilution 12 h: clear
  Visual Appearance RODI Dilution 24 h: clear
  Visual Appearance RODI Dilution 36 h: clear
  Visual Appearance RODI Dilution 48 h: clear
  Visual Appearance Initial: clear
